From patent publication US5346913A, “N-iodopropargyl hydantoin compounds, compositions, preparation, and use as antimicrobial agents” (Rohm and Haas Company, priority 1992, dated 1994) come the findings set out here.

What is called MIC is the least concentration at which growth counts as inhibited. A lower MIC goes with greater potency.

The test system of one experiment is Pseudomonas aerugenosa. Briefly: MIC, broth two-fold serial dilution test, Pseudomonas aerugenosa (Psae). Type of experiment: cell-based. The text has this:
(§1) The compounds identified with a prime (') were the non-iodo analogues of the invention compounds, i.e., the compounds of formula III or IV. All data are reported in ppm of active ingredient required to control the respective organism. The indication "No In." means that the compound had no inhibitory activity at 500 ppm which was the maximum tested, and so if the "No In." compound were active, the minimum inhibitory concentration would be above 500 ppm. The comparative tests were not run side-by-side, but were run on different days using the same methods. […] A minimum inhibitory concentration (MIC) value is obtained using a broth, two-fold serial dilution test performed as follows: […] A volume of the stock solution is dispensed into culture media to give an initial starting test concentration of the compound of 500 ppm or 250 ppm. When the test is ready to be done, each vessel in the dilution series, except the first vessel, contains an equal volume of compound free broth. The first vessel contains twice the volume of broth with the starting concentration of test compound. One half of the broth from the first vessel is transferred to the second vessel. After being mixed, one half the resulting volume is removed from the second vessel and transferred to the third vessel. […] Each vessel is then inoculated with a cell suspension of the appropriate test organism. Bacteria are grown in broth and fungi on agar […] is grown in cooling tower media for a time and at a temperature appropriate to the species being tested. At the end of the growth period, the broth is vortexed to disperse the cells. In the case of fungi, the spores are harvested by pipetting water onto the slant and dislodging the spores with a sterile loop. The cell/spore suspension is standardized by controlling incubation time, temperature, and the volume of the diluent. The suspension is then used to inoculate the vessels containing the broth compound. The vessels are then incubated at the appropriate temperature. After the incubation, the vessels are examined for growth/no growth. The MIC is defined as the lowest concentration of compound that results in complete inhibition of growth of the test organism. BACTERIA: Pseudomonas fluorescens (Ps.fl), gram negative; Pseudomonas aerugenosa (Ps.ae), gram negative; Escherichia coli (E.c), gram negative; and Staphylococcus aureus (S.a), gram positive.

The test system of a further experiment is Escherichia coli. Briefly: MIC, broth two-fold serial dilution test, Escherichia coli (Ecol). In kind it is cell-based.
Description: as §1

For the next experiment, the system named is Staphylococcus aureus. Put plainly: MIC, broth two-fold serial dilution test, Staphylococcus aureus (Saur). Type of experiment: cell-based.
Description: as §1

Another experiment concerns Aspergillus niger. Briefly: MIC, broth two-fold serial dilution test, Aspergillus niger (Anig). In kind it is cell-based. The settings on record: TSB.
Description: as §1, with “INDUSTRIAL FUNGI: Aspergillus niger (A.n); Aureobasidium pullulans (A.p)” for “BACTERIA: Pseudomonas fluorescens (Ps.fl), gram negative; Pseudomonas aerugenosa (Ps.ae), gram negative; Escherichia coli (E.c), gram negative; and Staphylococcus aureus (S.a), gram positive.”

The test system of experiment [1] is Pseudoperonospora cubensis. Put plainly: whole plant or invertebrate. Type of experiment: in vivo. The note with it: Pseudoperonospora cubensis, in Cucumis sativus, 168 h; read-out: % Control CDM.
In a further experiment the test system is Piricularia oryzae. Put plainly: whole plant or invertebrate. The settings on record: Pyricularia oryzae, read-out: % Control RB. Type of experiment: in vivo.
In experiment [2] the test system is Pellicularia filamentosa (f. sp. sasiki). Put plainly: whole plant or invertebrate. In kind it is in vivo. The settings on record: 120 h; read-out: % Control RSB.
For another experiment, the system named is Phytophthora infestans. Briefly: whole plant or invertebrate. The settings on record: Phytophthora infestans, in Solanum lycopersicum, 96 h; for pest or weed control at 50 ppm: read-out: % Control TLB, secondary greenhouse test (Table 5), 50 ppm. Type of experiment: in vivo.
For experiment [3], the system named is Erysiphe graminis (f. sp. tritici). Briefly: whole plant or invertebrate. In kind it is in vivo. The note with it: Blumeria graminis; read-out: % Control WPM.
Experiment [4] has as its system Puccinia recondita (f. sp. tritici Races PKB and PLD). Put plainly: whole plant or invertebrate. Type of experiment: in vivo. The settings on record: Puccinia recondita, 240 h; read-out: % Control WLR.
Where [5] appears, read: read-out: % Control TLB, greenhouse test (Table 4), 200 ppm.
Where [6] appears, read: read-out: % Control TLB, secondary greenhouse test (Table 5), 200 ppm.

Structures are written as SMILES. Converted amounts (≈) assume the structure as drawn. Where two headings read alike, the source gives them in different places. Where only a bound is given, the exact number is not on record here.

On to `CC1C(=O)N(c2cc(Cl)cc(Cl)c2)C(=O)N1CC#CI` (stereo not drawn) [Compound 1], for which the MIC in the experiment on Pseudomonas aerugenosa (M9G), against Pseudomonas aerugenosa (TSB), with Escherichia coli (M9G), in the experiment on Escherichia coli (TSB), in the experiment with Staphylococcus aureus (M9G) and with Staphylococcus aureus (TSB) was above 500 µg/mL in each case. Also, the MIC with Aspergillus niger amounted to 0.5 µg/mL (≈ 1.18 µM). In addition, the pest or weed control at 200 ppm in experiment [1] stood at 90%; in the experiment on Piricularia oryzae it was 50%; in [2], 75%; in the experiment with Phytophthora infestans (setting [5]), 0%; with Phytophthora infestans (setting [6]) it was 95%; in experiment [4], 80%. Further, the pest or weed control at 50 ppm in the experiment on Piricularia oryzae was found to be 50%; in experiment [2] it was 50%; with Phytophthora infestans it was 75%; in experiment [3] it was 0%; in [4] it was 50%.

In the case of `C#CCN1C(=O)N(CC#C)C(C)(C)C1=O` [Compound 11, 1,3-bis-(2-propynyl)-5,5-dimethylhydantoin, reference compound], the MIC against Pseudomonas aerugenosa (M9G), against Pseudomonas aerugenosa (TSB), against Escherichia coli (M9G), with Escherichia coli (TSB), against Staphylococcus aureus (M9G) and in the experiment with Staphylococcus aureus (TSB) was above 500 µg/mL each time. In the experiment on Aspergillus niger, the MIC was above 500 µg/mL.

As to `CCCCCCCCN1C(=O)N(CC#CI)C(C)(C)C1=O` [Compound 10, 1-(3-iodo-2-propynyl)-3-n-octyl-5,5-dimethylhydantoin], the MIC in the experiment with Pseudomonas aerugenosa (M9G) was 125 µg/mL (≈ 309 µM); against Pseudomonas aerugenosa (TSB), above 500 µg/mL; against Escherichia coli (M9G), 250 µg/mL (≈ 618 µM); in the experiment with Escherichia coli (TSB), above 500 µg/mL; in the experiment on Staphylococcus aureus (M9G), 2 µg/mL (≈ 4.95 µM); against Staphylococcus aureus (TSB), 4 µg/mL (≈ 9.89 µM). The same compound registered an MIC in the experiment with Aspergillus niger of 4 µg/mL (≈ 9.89 µM).

In the case of `C#CCN1C(=O)N(Cc2ccccc2)C(=O)C1(C)C` [Compound 8, 3-benzyl-1-propargyl-5,5-dimethylhydantoin, reference compound], the MIC with Pseudomonas aerugenosa (M9G), against Pseudomonas aerugenosa (TSB), against Escherichia coli (M9G), against Escherichia coli (TSB), against Staphylococcus aureus (M9G) and in the experiment on Staphylococcus aureus (TSB) was above 500 µg/mL each time. This compound also gave an MIC in the experiment with Aspergillus niger above 500 µg/mL.

Turning to `CC1(C)C(=O)N(CC#CI)C(=O)N1Cc1ccccc1` [Compound 14], the MIC is above 500 µg/mL against Pseudomonas aerugenosa (M9G); above 500 µg/mL in the experiment on Pseudomonas aerugenosa (TSB); 125 µg/mL (≈ 327 µM) in the experiment with Escherichia coli (M9G); 250 µg/mL (≈ 654 µM) against Escherichia coli (TSB); above 500 µg/mL against Staphylococcus aureus (M9G); 64 µg/mL (≈ 167 µM) in the experiment on Staphylococcus aureus (TSB). Besides, in the experiment on Aspergillus niger, the minimal inhibitory concentration (MIC) was found to be 4 µg/mL (≈ 10.5 µM).

`CCCCN1C(=O)N(CC#CI)C(C)(C)C1=O` [Compound 9, 1-(3-iodo-2-propynyl)-3-n-butyl-5,5-dimethylhydantoin]: the MIC against Pseudomonas aerugenosa (M9G) was determined as 64 µg/mL (≈ 184 µM); against Pseudomonas aerugenosa (TSB), 500 µg/mL (≈ 1440 µM); in the experiment on Escherichia coli (M9G), 16 µg/mL (≈ 46 µM); against Escherichia coli (TSB) it was 500 µg/mL (≈ 1440 µM); against Staphylococcus aureus (M9G), 4 µg/mL (≈ 11.5 µM); in the experiment on Staphylococcus aureus (TSB), 16 µg/mL (≈ 46 µM). This compound displayed an MIC in the experiment on Aspergillus niger of 2 µg/mL (≈ 5.74 µM).

With `O=C1CNC(=O)N1CC#CI` [Compound 15, 3-(3-iodo-2-propynyl)-hydantoin], the MIC against Pseudomonas aerugenosa (M9G) turned out to be 250 µg/mL (≈ 947 µM); in the experiment on Pseudomonas aerugenosa (TSB), 500 µg/mL (≈ 1890 µM); with Escherichia coli (M9G), 64 µg/mL (≈ 242 µM); in the experiment on Escherichia coli (TSB), 64 µg/mL (≈ 242 µM); against Staphylococcus aureus (M9G), 64 µg/mL (≈ 242 µM); in the experiment with Staphylococcus aureus (TSB), 125 µg/mL (≈ 473 µM). In addition, in the experiment on Aspergillus niger, the MIC stood at 8 µg/mL (≈ 30.3 µM).

For `O=C1CN(CC#CI)C(=O)N1c1cc(Cl)cc(Cl)c1` [Compound 7, 1-(3-iodo-2-propynyl)-3-(3,5-dichlorophenyl)hydantoin], the MIC in the experiment with Pseudomonas aerugenosa (M9G) is above 500 µg/mL; against Pseudomonas aerugenosa (TSB), above 500 µg/mL; with Escherichia coli (M9G) it was above 500 µg/mL; in the experiment on Escherichia coli (TSB), above 500 µg/mL; against Staphylococcus aureus (M9G), 16 µg/mL (≈ 39.1 µM); in the experiment with Staphylococcus aureus (TSB), 8 µg/mL (≈ 19.6 µM). Also, the MIC against Aspergillus niger is 1 µg/mL (≈ 2.44 µM). For the same compound, the pest or weed control at 200 ppm turned out to be 50% in experiment [1]; 50% in the experiment with Piricularia oryzae; 50% in experiment [2]; 90% in the experiment on Phytophthora infestans (setting [5]); 90% with Phytophthora infestans (setting [6]). Besides, the pest or weed control at 50 ppm in the experiment on Piricularia oryzae is 50%; in the experiment on Phytophthora infestans it was 50%; in [3] it was 0%; in [4], 50%.

As to `C#CCN1C(=O)N(Cc2ccccc2)C(C)(C)C1=O` [Compound 14, 1-benzyl-3-(propyn-2-yl)-5,5-dimethylhydantoin, reference compound], the MIC with Pseudomonas aerugenosa (M9G), against Pseudomonas aerugenosa (TSB), against Escherichia coli (M9G), with Escherichia coli (TSB), with Staphylococcus aureus (M9G) and in the experiment on Staphylococcus aureus (TSB) was above 500 µg/mL in each case. This compound also registered an MIC in the experiment on Aspergillus niger above 500 µg/mL.

In the case of `C#CCN1C(=O)NC(C)(C)C1=O` [Compound 12, 3-(2-propynyl)-5,5-dimethylhydantoin, reference compound], the MIC in the experiment with Pseudomonas aerugenosa (M9G), against Pseudomonas aerugenosa (TSB), against Escherichia coli (M9G), against Escherichia coli (TSB), in the experiment with Staphylococcus aureus (M9G) and against Staphylococcus aureus (TSB) was above 500 µg/mL each time. In the experiment with Aspergillus niger, this compound registered an MIC above 500 µg/mL.

In the case of `C#CCN1C(=O)N(c2cc(Cl)cc(Cl)c2)C(=O)C1C` (stereo not drawn) [Compound 1', 1-(2-propynyl)-3-(3,5-dichlorophenyl)-5-methylhydantoin, reference compound], the MIC in the experiment on Pseudomonas aerugenosa (M9G), in the experiment with Pseudomonas aerugenosa (TSB), in the experiment with Escherichia coli (M9G), against Escherichia coli (TSB), with Staphylococcus aureus (M9G) and in the experiment on Staphylococcus aureus (TSB) was above 500 µg/mL in each case. Further, in the experiment on Aspergillus niger, the MIC was above 500 µg/mL.

Consider `CC1(C)C(=O)N(Cc2ccccc2)C(=O)N1CC#CI` [Compound 8], for which the MIC against Pseudomonas aerugenosa (M9G) was 32 µg/mL (≈ 83.7 µM); against Pseudomonas aerugenosa (TSB) it was 125 µg/mL (≈ 327 µM); in the experiment on Escherichia coli (M9G), 64 µg/mL (≈ 167 µM); against Escherichia coli (TSB), 125 µg/mL (≈ 327 µM); against Staphylococcus aureus (M9G), 16 µg/mL (≈ 41.9 µM); against Staphylococcus aureus (TSB) it was 16 µg/mL (≈ 41.9 µM). The same compound returned an MIC against Aspergillus niger below 0.25 µg/mL. Further, the pest or weed control at 50 ppm was 50% in the experiment with Piricularia oryzae; 50% in experiment [2]; 50% with Phytophthora infestans; 0% in experiment [3]; 80% in experiment [4]. Further, the pest or weed control at 200 ppm with Piricularia oryzae worked out at 50%; in [2] it was 75%; in the experiment with Phytophthora infestans (setting [6]) it was 50%; in [3], 50%; in experiment [4] it was 90%.
